US6376666B1 (Nauchno-Issledovatelsky Institut Farmakologii Rossiiskoi …, priority 1994, dated 2002)
Each block holds one molecule with its values, some of them ahead of it.

Experiments:
Format in all cases: in vivo
[1] = system: Balb/c mice; experiment: open-field test, Balb/c mice (passive type of emotional-stress reaction); design: key to Total activity: sum of all locomotor activity counts (crossings + rearings) in 3 min; details: for effect on the behavior (locomotor activity) of Balb/c mice in open-field test, in words: i.p., screening
Procedure, shortened: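 Male mice, 20-22 g, dosed i.p. in water 30 min before a 3-min open-field test after 1 min in darkness; peripheral, central, rearing and total activity plus defecations recorded; Student t-test. Anxiolysis read as Balb/c activation, sedation as C57B1/6 inhibition.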

[2] = system: cats; experiment: hemodynamics and activity of intact heart in cats under anesthesia; details: cats i.v.
Procedure: The effects of compounds on the hemodynamics and activity of intact heart were studied in cats under anesthesia. The experiments were carried out under conditions of open chest. The phase curve of aortic blood flow was the main index of cardiac activity. The compounds were administered i.v. in physiological solution. The t-Student' test was used to estimate the statistical significance.

[3] = system: ventricular fibrillations; experiment: ventricular fibrillation, 7-min occlusion and reperfusion of coronary artery in anesthetized rats; details: anesthetized rats i.v.; bonnecor 1,0, IX 2,0, X (printed) 1,0 mg/kg
Procedure: The experiments were conducted in male rats weighing 180-240 g and anesthetized with nembutal (60 mg/kg i.v.) with open chest and artificial respiration. The occlusion of the left coronary artery was performed 1-2 min after experiment beginning with following reperfusion after 7 min. During this period time according to literature data [Krzeminski T., Grzyb J., Kurcok A., Brus R.: Pol.J.Pharmacol., 1992, 44, Suppl., p.169-170] the maximum number of ventricular fibrillations (70-100%) were registered. The ECG in the 2nd standard lead was recorded in “Mingograph-81”. The number of ventricular fibrillations during occlusion and reperfusion periods, the life menacing arrhythmia (fibrillation+paroxysmal ventricular tachycardia) and total number of arrhythmias were calculated. The known antiarrhythmic drug bonnecor was used as the reference agent [Grigorieva E. K., Gorbunova V. V. in: “New antiarrhythmic drug—bonnecor (the pharmacology and clinical usage)”, M., 1993, p.64-67]. The compounds were injected i.v. at the following doses: bonnecor—1,0 mg/kg, compound IX—2,0 mg/kg, compound XX—1,0 mg/kg. The control animals were administered with the equivalent volume of physiological solution (1,0 ml/kg). 4 series of experiments were carried out in 80 rats. The results were assessed according to the method of point scale: the absence of arrhythmia—0 point, extrasystole—1 point, paroxysmal ventricular tachycardia—2 points, ventricular fibrillation—3 points, fibrillation observed during the occlusion of coronary vessel—4 points. For statistical analysis the Fisher's exact probability and Wilconson's methods were used.
[Krzeminski T., Grzyb J., Kurcok A., Brus R.: Pol.J.Pharmacol., 1992, 44, Suppl., p.169-170] have shown that 7 min occlusion with following reperfusion of coronary artery in anesthetized rats produced the ventricular fibrillation (68-100%). Defibrotide and prostacycline decreased the number of fibrillations. We have studied the antifibrillator activity of some derivatives of 2-mercaptbenzimidazole in this model with disturbances of heart rhythm. Bonnecor (1,0 mg/kg) was used as the reference drug. It is well known that this agent produces apronouncedantifibrillatoryactivity [Grigorieva E. K., Gorbunova V. V. in: “New antiarrhythmic drug-bonnecor (the pharmacology and clinical usage)”, M., 1993, p.64-67].

[4] = system: C57B1/6 mice; experiment: open-field test, C57B1/6 mice (active type of emotional-stress reaction); design: key to Total activity: sum of all locomotor activity counts (crossings + rearings) in 3 min; details: for Central activity (crossings) / Peripheral activity (crossings) / Total activity / Vertical activity (rearings): M ± mx
Text: The main point of this approach consists in comparative analysis of the behavioural effects of tested compounds in two inbred strains of mice Balb/c and C57B1/6 with different hereditary types of emotional-stress reactions (ESR). The anxiolytic effect was estimated as the activation of the locomotor activity of animals with “passive” type of ESR (Balb/c mice). The main index describing the sedative properties of tested drugs was the inhibition of the locomotor activity of mice with “active” type of ESR (C57B1/6 strain). The anxioselectivity was evaluated according to coincidence of doses range which activated or inhibited the behavior of mice of different strains. Earlier this approach has been successfully used for estimation of anxioselective activity of such known drugs as phenazepam [Seredenin S. B. et al., Bull.Exp.Biol.Med., 1979, v.88, N7, p.38; Seredenin S. B. et al., Ann.Inst.Super.Sanita, 1990, v.26, N1, p.81-88], mexidol [Seredenin S. B. et al., Khimiko-Farmatsevt.Zhurnal, 1987, N2, p.134; Vironina T. A., Seredenin S. B., Ann.Inst.Super.Sanita, 1988, v.24, N3, p.461-466] and gidazepam [Seredenin S. B. et al., in: “Gidazepam” Kiev, Naukova Dumka, 1992, p.92; Seredenin S. B., Blednov Yu. A., Phys.Chem.Biol.Med., 1993, v.1, N1, p.53-60].
Male C57B1/6 and Balb/c mice (“Stolbovaya” animal farm), weighing 20-22 g were used. The animals were housed in a separate animal room in groups of ten and maintained on 12 h light-dark cycle (light from 8.00 till 20.00) with free access to standard food and water during two weeks before experiment. Testing was performed between 9.00 and 13.00. Every used compound was administered intraperitoneally in water solutions 30 min before testing (0,1 ml solution per 10 g of weight). The “open-field” apparatus consisted of cylinder closed from one end, illuminated by four 75 W lamps fixed to the walls 100 cm above the floor. The “open-field” apparatus was 100 cm in diameter and white-painted; the floor was marked with 3 black circles and some radial lines divided the floor into 16 peripheral and 8 central segments. 30 min after injection each animal was placed in the same peripheral square on the floor for 3 min of testing after 1 min exposure in the dark chamber. The following behavior variables were recorded: 1) the number of crossings in the peripheral area (peripheral activity); 2) the number of crossings in the central segments (central activity); 3) the number of rearings (vertical activity); 4) the emotionality was measured as the number of defecations during the test. The sum of all types of locomotor activity was marked as total activity. The t-Student test was used for statistical analysis.

[5] = system: outbred male rats; experiment: conflict Vogel test (punished licking of water); details: M ± mx
Procedure: The study of anxiolytic activity of chosen compounds was carried out in the experiments with outbred male rats weighing 180-200 g in standard conflict Vogel' procedure [Voronina T. A. et al., in: “Phenazepam”, Naukova Dumka, Kiev, 1982, p.89, 93, 146]. The main aim of the initial step of experiments was the training of rats to develop the feeling of thirst with following experience of water licking from bottle in the experimental chamber. The animals were deprived of water for 24 hours and were placed in the test chamber for 5-min adaptation period during which they had free access to the drinking bottle. After another 24 h deprivation period the rats were placed again in the test chamber and were allowed to drink water for 5 sec. Immediately afterwards drinking attempts were punished by electric shock (0,5 mA). Under this collision of drinking and protective reflexes the extremal situation was developed. In this situation the anxiety of punishment prevented the licking process. The number of shocks received throughout a 5-min experimental session was recorded.

[6] = system: outbred male mice; experiment: rotarod test (myorelaxant activity); details: cut-off 120 sec
Procedure: The myorelaxant activity of choosen compounds were studied in the outbred male mice weighing 22-25 g in rotarod test [Voronina T. A. et al., in: “Phenazepam”, Naukova Dumka, Kiev, 1982, p.145]. The animals were placed on the horizontal rotarod (D=2 cm) calibrated for a fixed speed of 4 rpm. According to the rotarod experimental protocol, normal motor coordination was defined by the ability of the animals to remain on the rotarod for an arbitrarily selected time of 120 sec.

[7] = system: male outbred mice; experiment: potentiation of sleep induced by sodium thiopental
Procedure: The possible hypnotic effects of choosen drugs was estimated according to method of potentiation of sleep induced by sodium thiopental. The male outbred mice weighing 20-25 g were injected i.p. with sodium thiopental at dose of 70 mg/kg. Two parameters were estimated: latent time of sleeping and duration of sleep. The used compounds were administered i.p. 30 min prior injection of sodium thiopental.

[8] = 0.5 mg/kg i.p. 30 min before thiopental 70 mg/kg i.p.
[9] = 1.0 mg/kg i.p. 30 min before thiopental 70 mg/kg i.p.
[10] = 5.0 mg/kg i.p. 30 min before thiopental 70 mg/kg i.p.
[11] = 10.0 mg/kg i.p. 30 min before thiopental 70 mg/kg i.p.

Compound: CCOc1ccc2nc(SCCN3CCCC3)[nH]c2c1 [Compound X, 2-[2-(Pyrrolidino)ethylthio]-5-ethoxybenzimidazole]
- effect on the behavior (locomotor activity) of Balb/c mice in open-field test, in words [1]: neither activatory nor inhibitory effects
- effect on heart rate, in words ([2]; doses of 0,5 mg/kg-2,0 mg/kg): small and short bradycardia
- antifibrillatory effect, in words [3]: trend to decrease the number of ventricular fibrillations

- duration of sleep after sodium thiopental [7, 8]: 78.4 ± 18.2 min
- latent time of sleep after sodium thiopental [7, 8]: 2.5 ± 0.2 s
- duration of sleep after sodium thiopental [7, 9]: 70.5 ± 13.7 min
- latent time of sleep after sodium thiopental [7, 9]: 2.8 ± 0.2 s
- duration of sleep after sodium thiopental [7, 10]: 56.8 ± 19.1 min
- latent time of sleep after sodium thiopental [7, 10]: 2.3 ± 0.2 s
- duration of sleep after sodium thiopental [7, 11]: 74.7 ± 18.7 min
- latent time of sleep after sodium thiopental [7, 11]: 2.8 ± 0.3 s
Compound: Cc1cc2nc(SCCN3CCOCC3)[nH]c2cc1C [XV, 2-[2-(Morpholino)ethylthio]-5,6-dimethylbenzimidazole]
- Number of defecations ([1]; 0.01 mg/kg i.p., M ± mx): 0.5 ± 0.5
- Peripheral activity (crossings) ([1]; 0.01 mg/kg i.p., M ± mx): 6.9 ± 1.8
- Total activity ([1]; 0.01 mg/kg i.p., M ± mx): 6.9 ± 1.8
- Number of defecations ([1]; 0.1 mg/kg i.p., M ± mx): 1.0 ± 0.7
- Peripheral activity (crossings) ([1]; 0.1 mg/kg i.p., M ± mx): 11.1 ± 2.1
- Total activity ([1]; 0.1 mg/kg i.p., M ± mx): 11.2 ± 2.1
- Central activity (crossings) ([1]; 0.5 mg/kg i.p., M ± mx): 0.5 ± 0.4
- Number of defecations ([1]; 0.5 mg/kg i.p., M ± mx): 1.6 ± 0.7
- Peripheral activity (crossings) ([1]; 0.5 mg/kg i.p., M ± mx): 32.1 ± 4.7
- Total activity ([1]; 0.5 mg/kg i.p., M ± mx): 32.6 ± 5.0
- Central activity (crossings) ([1]; 1.0 mg/kg i.p., M ± mx): 5.1 ± 4.4
- Number of defecations ([1]; 1.0 mg/kg i.p., M ± mx): 2.0 ± 0.9
- Peripheral activity (crossings) ([1]; 1.0 mg/kg i.p., M ± mx): 37.7 ± 5.5
- Total activity ([1]; 1.0 mg/kg i.p., M ± mx): 42.8 ± 9.9
- Number of defecations ([1]; 5.0 mg/kg i.p., M ± mx): 3.6 ± 0.9
- Peripheral activity (crossings) ([1]; 5.0 mg/kg i.p., M ± mx): 39.1 ± 8.6
- Total activity ([1]; 5.0 mg/kg i.p., M ± mx): 39.1 ± 8.6
- Central activity (crossings) ([1]; 10.0 mg/kg i.p., M ± mx): 0.6 ± 0.5
- Peripheral activity (crossings) ([1]; 10.0 mg/kg i.p., M ± mx): 44.9 ± 13.0
- Total activity ([1]; 10.0 mg/kg i.p., M ± mx): 45.9 ± 13.8
- Vertical activity (rearings) ([1]; 10.0 mg/kg i.p., M ± mx): 0.4 ± 0.3 —
- Number of defecations ([1]; 75.0 mg/kg i.p., M ± mx): 2.7 ± 1.3
- Peripheral activity (crossings) ([1]; 75.0 mg/kg i.p., M ± mx): 8.8 ± 2.9
- Total activity ([1]; 75.0 mg/kg i.p., M ± mx): 8.8 ± 2.9
- Peripheral activity (crossings) ([1]; 100.0 mg/kg i.p., M ± mx): 6.5 ± 3.1
- Total activity ([1]; 100.0 mg/kg i.p., M ± mx): 6.5 ± 3.1
- effect on the behavior (locomotor activity) of Balb/c mice in open-field test, in words [1]: able to activate the behavior of Balb/c mice
- Central activity (crossings) ([4]; 1.0 mg/kg i.p.): 39.0 ± 6.9
- Peripheral activity (crossings) ([4]; 1.0 mg/kg i.p.): 87.8 ± 6.7
- Total activity ([4]; 1.0 mg/kg i.p.): 138.2 ± 16.1
- Vertical activity (rearings) ([4]; 1.0 mg/kg i.p.): 11.4 ± 2.5
- Central activity (crossings) ([4]; 5.0 mg/kg i.p.): 36.4 ± 5.7
- Peripheral activity (crossings) ([4]; 5.0 mg/kg i.p.): 87.8 ± 14.6
- Total activity ([4]; 5.0 mg/kg i.p.): 139.1 ± 22.6
- Vertical activity (rearings) ([4]; 5.0 mg/kg i.p.): 14.9 ± 2.3
- Central activity (crossings) ([4]; 50.0 mg/kg i.p.): 35.0 ± 8.1
- Peripheral activity (crossings) ([4]; 50.0 mg/kg i.p.): 54.1 ± 10.7
- Total activity ([4]; 50.0 mg/kg i.p.): 95.4 ± 20.4
- Vertical activity (rearings) ([4]; 50.0 mg/kg i.p.): 6.3 ± 1.6
- effect on locomotor activity of C57B1/6 mice in open-field test, in words ([4]; i.p., doses that activate Balb/c mice): without any changes in locomotor activity
- number of punished lickings (shocks received in 5-min session) ([5]; 1.0 mg/kg i.p.): 59.1 ± 16.7
- number of punished lickings (shocks received in 5-min session) ([5]; 5.0 mg/kg i.p.): 35.3 ± 5.5
- number of punished lickings (shocks received in 5-min session) ([5]; 10.0 mg/kg i.p.): 38.0 ± 9.4
- number of punished lickings (shocks received in 5-min session) ([5]; 20.0 mg/kg i.p.): 73.9 ± 24.1
- time of remaining on the rotarod ([6]; 0.1 mg/kg): 120 + 0 sec
- time of remaining on the rotarod ([6]; 1.0 mg/kg): 120 + 0 sec
- time of remaining on the rotarod ([6]; 5.0 mg/kg): 120 + 0 sec
- time of remaining on the rotarod ([6]; 10.0 mg/kg): 120 + 0 sec
- time of remaining on the rotarod ([6]; 20.0 mg/kg): 120 + 0 sec
- effect on heart rate, in words ([2]; dose of 5 mg/kg): small, but statistically significant bradycardia
